# Laboratory results from ChEMBL document CHEMBL1121379, “Some short-chain N6-substituted adenosine analogues with antitumor properties” (1980).
# “And” between values parts separate entries of the source, which are not always exact repeats. Identical values can stand only once.
# How the values were obtained:
# Format in all cases: functional
# MCF7 = experiment: Concentration required for 50% growth inhibition of human breast tumor cells MCF-7 human breast carcinoma cells; conditions: read-out: ID50 (the source's name)
# [1] = Concentration required for 50% growth inhibition of the following cell lines human bladder carcinoma cells; conditions: read-out: ID50 (the source's name)
# Mus musculus [2] = experiment: Antitumor activity against slow growing spontaneous mammary tumors in the DBA/2 Ha-DD mouse mean life span in days at 50 mg/kg give 5 times once in 5 days
# Mus musculus [3] = experiment: Antitumor activity against slow growing spontaneous mammary tumors in the DBA/2 Ha-DD mouse % increased in life span 3.8 mg/kg/day x 5 melphalan + 50 mg/kg/day compound
# [4] = Concentration required for 50% growth inhibition of the following cell lines human fibro blast cells; conditions: read-out: ID50 (the source's name)
# Mus musculus [5] = organism: Mus musculus; experiment: Concentration required for 50% growth inhibition of the following cell lines mouse fibro blasts; conditions: read-out: ID50 (the source's name)
# [6] = Concentration required for 50% growth inhibition of the following cell lines Carcinoma TA-3 cells; conditions: Mus musculus, TA3; read-out: ID50 (the source's name)
# Mus musculus [7] = experiment: Antitumor activity against mouse leukemia, L-1210(DBA/2 Ha Mice) mean life span ( days) of the mouse after the dosage at 1.56 mg/kg of dose per day
# L1210 = experiment: Concentration required for 50% growth inhibition of the following cell lines Leukemia L-1210 cells; conditions: Mus musculus, read-out: ID50 (the source's name)
# Burkitts lymphoma cell = experiment: Concentration required for 50% growth inhibition of the following cell lines human burkitt lymphoma cells; conditions: read-out: ID50 (the source's name)
# [8] = Concentration required for 50% growth inhibition of human breast tumor cells SW-613 human breast adenocarcinoma cells; conditions: SW613, read-out: ID50 (the source's name)
# Mus musculus [9] = experiment: Antitumor activity against mouse leukemia, L-1210(DBA/2 Ha Mice) % increase in life span at 3.12 mg/kg of dose per day; conditions: for ILS at 3.12 mg/kg: Mus musculus, L1210, dose 3.12 mg/kg
# Mus musculus [10] = experiment: Antitumor activity against slow growing spontaneous mammary tumors in the DBA/2 Ha-DD mouse number of days reacquired fro tumor growth 3.8 mg/kg/day x 5 melphalan once in 5 days; set-up: unit: days
# [11] = Concentration required for 50% growth inhibition of the following cell lines sarcoma S-180 cells; conditions: Mus musculus, read-out: ID50 (the source's name)
# Mus musculus [12] = experiment: Antitumor activity against mouse leukemia, L-1210(DBA/2 Ha Mice) mean life span (days) of the mouse after fractionated dosage(dose divided in two halves and administered in two daily injections) at 6.25 mg/kg of dose per day
# Mus musculus [13] = experiment: Antitumor activity against slow growing spontaneous mammary tumors in the DBA/2 Ha-DD mouse % increased in life span 3.8 mg/kg/day x 5 melphalan + 50 mg/kg/day
# Mus musculus [14] = experiment: antitumor activity against mouse leukemia, L-1210(DBA/2 Ha Mice) % increase in life span at 3.12 mg/kg of dose per day; conditions: L1210, dose 3.12 mg/kg
# HeLa = experiment: Concentration required for 50% growth inhibition of the following cell lines Hela cells; conditions: Homo sapiens, read-out: ID50 (the source's name)
SMILES,IC50 (MCF7),IC50 [1],Life span (Mus musculus [2]; 50 mg/kg),ILS (Mus musculus [3]),IC50 [4],IC50 (Mus musculus [5]),IC50 [6],Life span (Mus musculus [7]),IC50 (L1210),IC50 (Burkitts lymphoma cell),IC50 [8],Tumor half growth (Mus musculus [10]),IC50 [11],ILS at 3.12 mg/kg (Mus musculus [9]),further results
CC(C)Nc1ncnc2c1ncn2[C@@H]1O[C@H](CO)[C@@H](O)[C@H]1O,6.3 µM,11 µM,63.3 and 54.8 and 23.6,25.5% and 60% and 63.1%,6.5 µM,20 µM,13 µM,7.3,19 µM,27 µM,150 µM,17 and 24,30 µM,–,ILS (Mus musculus [9]; dose 3.12 mg/kg): 14.7% and 17.4% and 37.4%
OC[C@H]1O[C@@H](n2cnc3c(NCc4ccccc4)ncnc32)[C@H](O)[C@@H]1O [N6-BENZYLADENOSINE],22 µM,–,–,10.9% and 26%,–,–,14 µM,9.7,8.5 µM,11 µM,4 µM,20 and 21,45 µM,41%,Life span (Mus musculus [2]): 62.6; Life span (Mus musculus [12]): 38.8
C=CCNc1ncnc2c1ncn2[C@@H]1O[C@H](CO)[C@@H](O)[C@H]1O,1.4 µM,7.5 µM,46.6 and 48,82.5% and 38.7%,2.7 µM,14 µM,3 µM,–,12 µM,2.3 µM,50 µM,16 and 26 and 30,20 µM,–,ILS (Mus musculus [13]): 42.8%; Life span (Mus musculus [7]; 1.56 mg/kg): 8.3 and 10; ILS at 3.12 mg/kg (Mus musculus [14]): 8%
C#CCNc1ncnc2c1ncn2C1O[C@H](CO)[C@@H](O)[C@H]1O (stereo partly drawn),1.6 µM,3.8 µM,–,60%,2.8 µM,3.1 µM,2.5 µM,8.2,1 µM,8.3 µM,–,18,–,20%,IC50 (HeLa): 3.5 µM
C=C(C)CNc1ncnc2c1ncn2C1O[C@H](CO)[C@@H](O)[C@H]1O (stereo partly drawn),–,9 µM,–,19%,1.5 µM,25 µM,18 µM,30,19 µM,11 µM,4 µM,15,–,–,–
